The source of these data is publication PMC12172326 (Journal of Biomedical Science, 2025).

One data set deals with chicken embryos. Kind of data set: chicken embryo teratogenicity at E2.5. Type of data set: in vivo. On the procedure:
All studies with chicken embryos were performed in line with UK Home Office regulations and followed guidelines, standards and practices governed by the University of Aberdeen Ethics Committee (Scotland, UK). Fertilized chicken eggs were acquired from Henry Stewart & Co Ltd, Norfolk UK. […] Embryos were incubated at 37 °C to reach E2.5 (early developmental stages). Eggs were then opened and the embryonic membranes protecting the embryos were removed with forceps. Chicken embryos usually lie on one side, so the left side is directly against the yolk and the right side can be observed. […] Consequent to limited drug diffusion when applied to the right side of an embryo, the right side is deemed the ‘treatment’ side and the left (facing internally towards the yolk sac) is considered normal after treatment and thus can act as an internal control.

A short description of data set [1]: LPS-induced inflammation in RAW 264.7 cells (viability, nitrite, TNF-α). Type of data set: cell-based, mouse. The note with it: mouse, RAW 264.7 cells, RAW 264.7, 0.6 to 60 μM, LPS 20 ng/mL, MTS, read-out: cellular viability. On the procedure:
(§1) RAW 264.7 cell culture: RAW 264.7 cells were obtained from ATCC (Manassas, VA, USA) and grown in Dulbecco’s modified Eagle’s (DMEM), high glucose, GlutaMAX™ media supplemented with 10% FBS (ThermoFisher Scientific, Asheville, NC, USA). Cells were maintained at 37 °C and 5% CO2, were propagated as described by ATCC guidelines, and were cultured as previously communicated. […] One hour later, cells were challenged with lipopolysaccharide (LPS) (20 ng/ml, E. Coli O55:B5, Sigma, St Louis, MO, USA; Cat # L4005). This LPS concentration was selected from pilot studies to provide a submaximal inflammatory insult. Twenty-four hours later, culture media was collected to quantify cell viability (CellTiter 96® Aqueous One Solution Cell Proliferation Assay kit (MTS); Promega, Madison, WI, USA, Cat # G3580), secreted TNF-α protein (ELISA MAX™ Deluxe Set Mouse TNF-α, BioLegend, CA, USA; Cat # 430915) and nitrite (Griess Reagent System, Promega, Madison, WI, USA; Cat # G2930).

Another data set deals with RAW 264.7 cells. Described as above. Type of data set: cell-based, mouse. The note with it: RAW 264.7, LPS 20 ng/mL, 24 h, p < 0.05. The procedure:
as §1

The subject of data set [2] is mice subjected to controlled cortical impact (CCI) TBI. Kind of data set: CCI TBI in mice: histology and GFAP/IBA1 immunohistochemistry. Type of data set: in vivo, mouse. The procedure:
For behavioral analyses, mice were assessed for spatial memory, gait function, motor coordination/balance function and home cage activity. The animals were subsequently evaluated for cellular changes using histology and immunohistochemistry after euthanasia.
In order to develop a controlled cortical impact (CCI) model of TBI, mice were anesthetized with 2.5% 2,2,2-tribromoethanol (Avertin, 400 mg/kg, I.P.) (Sigma, St. Louis, MO, USA) and placed in a stereotaxic frame (Kopf Instruments, Tujunga, CA, USA). A 4 mm craniotomy was performed under sterile procedures; the craniotomy point was selected midway between the lambda and bregma sutures, and laterally midway between the central suture and the temporalis muscle. The skull fragment was then carefully removed without disruption of the underlying dura on the right side of the head. Before injury, the tip of the impactor was angled and kept perpendicular to the exposed cortical surface. The mouse CCI instrument consisted of an electromagnetic impactor, Impact One (Leica Biosystems Inc., Buffalo Grove, IL, USA) that allows independent manipulation of injury severity by adjusting the contact duration and velocity of a metal impactor and the depth of cortical deformation. In these experiments, the contact velocity was set at 5.0 m/s, the dwell time was set at 0.2 s, and the deformation depth was set at 1.5 mm to produce a moderate TBI. The injury site was cleaned and dried by use of sterile cotton tipped applicators prior to suturing the wound. During surgery and recovery, the body temperature of all animals was maintained at 36–37 °C by using a heating pad.
Two weeks following injury, mice were deeply anesthetized using isoflurane and underwent transcardial perfusion with 30 ml of phosphate-buffered saline (PBS) followed by 120 ml of 4% paraformaldehyde (PFA) in PBS. The brains were collected and placed into a 4% PFA solution for post-fixation overnight, and then transferred to 25% followed by 30% sucrose solution in PBS for dehydration. Sections of a region extending from the striatum to the hippocampus were cut coronally into 25 μm thickness using a cryostat (Leica Biosystems Inc., Buffalo Grove, IL, USA) and stored in a cryoprotectant solution. These sections were subjected to Giemsa (nuclear/chromosomal) staining and immunohistochemical analysis.
Brain sections obtained 2 weeks post-TBI, with a thickness of 25 µm, were placed onto slides. These sections were stained using a 10% Giemsa KH2PO4 buffered solution (pH 4.5) for 30 min at 40 °C. Following a rinse, the slides underwent de-staining, differentiation, dehydration in absolute ethanol, cleared in xylene, and then were cover-slipped. Subsequently, the slides were scanned using an All-in-One Fluorescence Microscope BZ-X710 (Keyence Corporation of America, Itasca, IL, USA). Brain image areas were quantified using ImageJ 1.52q software (National Institutes of Health, Bethesda, MD, USA). The contusion volume size and lateral ventricle size were determined as described previously, using the calculation formulas as follows:
Contusion volume size: Σ (area of contralateral hemisphere–area of ipsilateral hemisphere)/Σ area of contralateral hemisphere × 100.
Lateral ventricle size: Σ area of ipsilateral lateral ventricle/Σ area of contralateral lateral ventricle.
Nine brain sections from each mouse were quantified, spanning regions from bregma 0.86 mm to − 1.46 mm.
Immunohistochemistry for GFAP and IBA1 was performed as described previously. […]

For data set [3] the following is noted: 100 μg/ml; data derive from ref 64; cited from earlier work.
For data set [4] the following is noted: rat; cited from earlier work.
For data set [5] the following is noted: human; cited from earlier work.
Setting [6] is: 2 weeks after CCI, 13.23 and 26.47 mg/kg I.P. at 30 min and 24 h.
The mark [7] stands for this setting: both low and high doses, p < 0.0001.

The viability is the share of living cells, or the viability signal relative to a control.

Entries after “also recorded” stand apart in the source; their conditions may differ. Like-named read-outs stand apart in the source and are kept apart here. Marks after values point to notes of the source that are not given here.

For `Nc1cccc2c1C(=S)N(C1CCC(=O)NC1=O)C2=O` (stereo not drawn) [3-MP, 3-monothiopomalidomide], the “developmental effect on chicken embryos” value in the data set with chicken embryos (E2.5, 2.65 to 132 ug, 24 h exposure, vs DMSO controls) is recorded as “not teratogenic; also recorded: no adverse developmental differences or damage”. Besides, the Normal embryos in the data set on chicken embryos (E2.5, dose 2.65 ug, N 2, 24 h) is on record as 2; in the data set on chicken embryos (E2.5, dose 5.3 ug, N 3, 24 h) it was 3; in the data set on chicken embryos (E2.5, dose 20 ug, N 5, 24 h) it was 5; in the data set on chicken embryos (E2.5, dose 26.4 ug, N 7, 24 h) it was 5; in the data set with chicken embryos (E2.5, dose 52.8 ug, N 5, 24 h), 3; in the data set with chicken embryos (E2.5, dose 66 ug, N 3, 24 h), 3. The Normal embryos in the data set with chicken embryos (E2.5, dose 132 ug, N 3, 24 h) is reported as 3. In addition, the “Not counted embryos (died soon after application, methodology-related)” value with chicken embryos (E2.5, dose 26.4 ug, N 7) is 2^a; with chicken embryos (E2.5, dose 52.8 ug, N 5) it was 2^a. The viability at 24 h in data set [1] was above 90%. Also, in the data set on RAW 264.7 cells, the “concentration significantly reducing LPS-induced TNF-α” value is at least 30 µM. Besides, the “concentration significantly reducing LPS-induced nitrite” value in the data set on RAW 264.7 cells was at least 10 µM. The “contusion volume (loss of cortical tissue)” value in data set [2] (setting [6]) is reported as “unchanged”. Further, in data set [2] (setting [6]), the lateral ventricle enlargement entry is listed as “unchanged”. Also, the “TBI-induced morphological alterations in astrocytes (surface area, cell volume, branch area, branch length, number of branches)” value in data set [2] (both low and high doses, ipsilateral (p < 0.0001) and contralateral cortex) is given as “significantly ameliorated”. The “CCI-induced microglial morphological alterations (ramification index, branches, branch length, spanned area, junctions, endpoints)” value in data set [2] (setting [7]) is on record as “partially but significantly returned”. The “astrocyte complexity (total Sholl intersections)” value in data set [2] (setting [7]) is on record as “significantly mitigated”. Further, the “ex vivo stability in human plasma” value in data set [3] is given as “stable”. The “stability in ex vivo plasma and liver homogenate samples” value in data set [4] and in data set [5] was “relatively stable” each time.
